The record followed here is patent publication US10508109B2 (priority 2015, dated 2019).

Like-named read-outs stand apart in the source and are kept apart here.

One assay has as its system HCT-116. Briefly: Cell-based assay, anti-proliferative activity (Cell Counting Kit-8, 72 hours). Conditions: Homo sapiens, read-out: IC50 (μM) HCT-116. The method in brief: (§1)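 Seed cells in 96-well plates; add serially diluted inhibitor (1.5625 to 100 micro-M plus vehicle); incubate 72 hours; quantify viable growth by CCK-8 and calculate IC50.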
For orientation: Formazan colour is commonly taken as a measure of viable cells.

Another assay relates to CCD-18Co. The description is as above. The settings on record: Homo sapiens, read-out: IC50 (μM) CCD-18Co. The method in brief: as §1
Another assay concerns HFL1. Described as above. The settings on record: Homo sapiens, read-out: IC50 (μM) HFL1. The method in brief: as §1
The next assay concerns PC14. The description is as above. The settings on record: Homo sapiens, read-out: IC50 (μM) PC14. The method in brief: as §1
The next assay has as its target SUV39H2 (Homo sapiens (Human), UniProt Q9H5I1). Conditions: read-out: IC50 (μM) Suv 39H2 assay; enzyme assay.
For a further assay, the system named is A549. Briefly: Cell-based assay, anti-proliferative activity (Cell Counting Kit-8, 72 hours). The settings on record: Homo sapiens, read-out: IC50 (μM) A549. The method in brief:
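Growth read-out after inhibitor treatment of plated cells; potency expressed as IC50.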

The mark [1] stands for this setting: HCT-116 cells, Cell Counting Kit-8, 72 hours.
The mark [2] stands for this setting: CCD-18Co cells, Cell Counting Kit-8, 72 hours.
[3] abbreviates: HFL1 cells, Cell Counting Kit-8, 72 hours.
[4] abbreviates: PC-14, PC14 cells, Cell Counting Kit-8, 72 hours.
[5] abbreviates: A549 cells, Cell Counting Kit-8, 72 hours.

Chain of SUV39H2 (Q9H5I1 whole entry): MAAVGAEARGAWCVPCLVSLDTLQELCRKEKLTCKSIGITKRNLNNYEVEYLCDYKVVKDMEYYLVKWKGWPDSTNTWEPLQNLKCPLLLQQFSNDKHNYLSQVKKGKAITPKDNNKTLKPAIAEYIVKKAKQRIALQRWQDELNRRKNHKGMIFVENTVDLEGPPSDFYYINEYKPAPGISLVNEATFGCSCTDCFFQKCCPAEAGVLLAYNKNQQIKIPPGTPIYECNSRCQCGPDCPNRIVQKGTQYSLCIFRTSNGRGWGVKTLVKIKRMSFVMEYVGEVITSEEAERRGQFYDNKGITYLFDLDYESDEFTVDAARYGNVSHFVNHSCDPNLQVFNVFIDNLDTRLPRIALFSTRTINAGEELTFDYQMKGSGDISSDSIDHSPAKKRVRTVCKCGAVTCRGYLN

One may read the IC50 as the concentration needed to halve the response being measured. As for `COc1cc(OC)c(-c2cn3ccc(N4CCCNCC4)cc3n2)cc1Cl` [Example 189, 2-(5-chloro-2,4-dimethoxyphenyl)-7-(1,4-diazepan-1-yl)imidazo[1,2-a]pyridine], the IC50 with HCT-116 (setting [1]) is 3 µM; in the assay with CCD-18Co (setting [2]), 6.3 µM; in the assay on HFL1 (setting [3]), 2 µM; with PC14 (setting [4]), 2.9 µM; at SUV39H2, 0.00433 µM; in the assay with A549 (setting [5]), 3.5 µM.

In the case of `CCS(=O)(=O)N1CCN(c2ccn3cc(-c4cc(Cl)c(OC)cc4OC)nc3n2)CC1` [Example 190, 2-(5-chloro-2,4-dimethoxyphenyl)-7-[4-(ethylsulfonyl)piperazin-1-yl]imidazo[1,2-a]pyrimidine], the IC50 in the assay with HCT-116 (setting [1]) was 2.3 µM; in the assay with CCD-18Co (setting [2]), 4.5 µM; in the assay on HFL1 (setting [3]) it was 2.7 µM; in the assay on PC14 (setting [4]), 1 µM; on SUV39H2, 0.0306 µM; in the assay on A549 (setting [5]), 1.8 µM.

As for `CCCS(=O)(=O)N1CCN(c2ccn3cc(-c4cc(Cl)c(OC)cc4OC)nc3n2)CC1` [Example 191, 2-(5-chloro-2,4-dimethoxyphenyl)-7-[4-(propylsulfonyl)piperazin-1-yl]-imidazo[1,2-a]pyrimidine], the IC50 in the assay on HCT-116 (setting [1]) is 1.9 µM; in the assay on CCD-18Co (setting [2]) it was 3.2 µM; in the assay with HFL1 (setting [3]) it was 2 µM; in the assay on PC14 (setting [4]) it was 1.5 µM; on SUV39H2 it was 0.0293 µM; in the assay with A549 (setting [5]) it was 1.5 µM.

With `COc1cc(OC)c(-c2cn3ccc(N4CCC(NS(C)(=O)=O)CC4)nc3n2)cc1Cl` [Example 192, N-(1-(2-(5-chloro-2,4-dimethoxyphenyl)imidazo[1,2-a]pyrimidin-7-yl)-piperidin-4-yl)methanesulfonamide], the IC50 with HCT-116 (setting [1]) is 10 µM; in the assay with CCD-18Co (setting [2]), 5.3 µM; in the assay with HFL1 (setting [3]), 5.1 µM; in the assay with PC14 (setting [4]) it was 10 µM; on SUV39H2 it was 0.0148 µM; in the assay with A549 (setting [5]) it was 10 µM.

In the case of `CCOP(=O)(CCN1CC=C(c2ccn3cc(-c4cc(Cl)c(OC)cc4OC)nc3c2)CC1)OCC` [Example 194, diethyl (2-(4-(2-(5-chloro-2,4-dimethoxyphenyl)imidazo[1,2-a]pyridin-7-yl)-5,6-dihydropyridin-1(2H)-yl)ethyl)phosphonate], the IC50 with HCT-116 (setting [1]) is 8.6 µM; with CCD-18Co (setting [2]) it was 10 µM; in the assay with HFL1 (setting [3]) it was 10 µM; in the assay on PC14 (setting [4]), 5.7 µM; at SUV39H2, 0.0696 µM; in the assay with A549 (setting [5]), 9 µM.

For `COc1cc(OC)c(-c2cn3ccc(C4=CCN(P(=O)(OC)OC)CC4)cc3n2)cc1Cl` [Example 195, dimethyl{4-[2-(5-chloro-2,4-dimethoxyphenyl)imidazo[1,2-a]pyridin-7-yl]-5,6-dihydropyridin-1(2H)-yl}phosphonate], the IC50 in the assay on HCT-116 (HCT-116, 72 h) was found to be 0.93 µM; in the assay with CCD-18Co (CCD-18Co, 72 h), 5.5 µM; in the assay on HFL1 (HFL1, 72 h), 2.8 µM; in the assay on PC14 (PC-14, 72 h) it was 0.51 µM; at SUV39H2, 0.0375 µM; in the assay on A549 (A549, 72 h), 0.7 µM.

In the case of `COc1cc(OCCCN(C)C)c(-c2cn3ccc(N4CCN(S(=O)(=O)N(C)C)CC4)cc3n2)cc1Cl` [Example 196, 4-(2-{5-Chloro-2-[3-(dimethylamino)propoxy]-4-methoxyphenyl}imidazo[1,2-a]pyridin-7-yl)-N,N-dimethylpiperazine-1-sulfonamide], the IC50 amounted to 2.2 µM in the assay with HCT-116 (setting [1]); 2.8 µM with CCD-18Co (setting [2]); 2.4 µM in the assay with HFL1 (setting [3]); 1.9 µM in the assay on PC14 (setting [4]); 0.0147 µM on SUV39H2; 2.1 µM in the assay with A549 (setting [5]).

Regarding `COc1cc(OCCCN(C)C)c(-c2cn3ccc(N4CCN(S(=O)(=O)C(C)C)CC4)cc3n2)cc1Cl` [Example 197, 3-(4-Chloro-2-(7-(4-(isopropylsulfonyl)piperazin-1-yl)imidazo[1,2-a]pyridin-2-yl)-5-methoxyphenoxy)-N,N-dimethylpropan-1-amine], the concentration for half-maximal inhibition (IC50) with HCT-116 (setting [1]) came out at 3.8 µM; in the assay with CCD-18Co (setting [2]), 2.9 µM; with HFL1 (setting [3]), 2.9 µM; with PC14 (setting [4]), 2.3 µM; on SUV39H2, 0.0144 µM; in the assay with A549 (setting [5]) it was 3.4 µM.

For the compound `COc1cc(OC)c(-c2cn3ccc(N4CCC(NP(=O)(OC)OC)CC4)cc3n2)cc1Cl` [Example 198, Dimethyl (1-(2-(5-chloro-2,4-dimethoxyphenyl)imidazo[1,2-a]pyridin-7-yl)piperidin-4-yl)phosphoramidate], the IC50 stood at 5.7 µM in the assay with HCT-116 (setting [1]); 3.5 µM with CCD-18Co (setting [2]); 1.6 µM in the assay on HFL1 (setting [3]); 3.7 µM in the assay on PC14 (setting [4]); 0.00435 µM on SUV39H2; 3.2 µM with A549 (setting [5]).

In the case of `CCS(=O)(=O)N1CCN(c2ccn3cc(-c4cc(Cl)c(OC)cc4OCCCN(C)C)nc3c2)CC1` [Example 199, 3-(4-chloro-2-(7-(4-(ethylsulfonyl)piperazin-1-yl)imidazo[1,2-a]pyridin-2-yl)-5-methoxyphenoxy)-N,N-dimethylpropan-1-amine], the IC50 in the assay on HCT-116 (setting [1]) was 6.4 µM; with CCD-18Co (setting [2]), 3.9 µM; in the assay on HFL1 (setting [3]), 4.8 µM; in the assay with PC14 (setting [4]), 3 µM; on SUV39H2, 0.0168 µM; in the assay with A549 (setting [5]), 5.2 µM.

`COc1cc(OC)c(-c2cn3ccc(N4CCCN(S(=O)(=O)N(C)C)CC4)cc3n2)cc1Cl` [Example 200, 4-[2-(5-chloro-2,4-dimethoxyphenyl)imidazo[1,2-a]pyridin-7-yl]-N,N-dimethyl-1,4-diazepane-1-sulfonamide]: the IC50 is 2 µM in the assay on HCT-116 (setting [1]); 3 µM with CCD-18Co (setting [2]); 1.7 µM in the assay on HFL1 (setting [3]); 1.3 µM in the assay with PC14 (setting [4]); 0.00674 µM at SUV39H2; 1.6 µM in the assay with A549 (setting [5]).

As to `COc1cc(OC)c(-c2cn3ccc(N4CCCN(S(C)(=O)=O)CC4)cc3n2)cc1Cl` [Example 201, 2-(5-chloro-2,4-dimethoxyphenyl)-7-[4-(methylsulfonyl)-1,4-diazepan-1-yl]imidazo[1,2-a]pyridine], the IC50 with HCT-116 (setting [1]) amounted to 2.7 µM; with CCD-18Co (setting [2]), 3.2 µM; with HFL1 (setting [3]) it was 3 µM; in the assay on PC14 (setting [4]) it was 1.9 µM; on SUV39H2, 0.0064 µM; in the assay with A549 (setting [5]) it was 2.2 µM.

Turning to `CCOP(=O)(CCN1CCN(c2ccn3cc(-c4cc(Cl)c(OC)cc4OC)nc3c2)CC1)OCC` [Example 202, diethyl (2-(4-(2-(5-chloro-2,4-dimethoxyphenyl)imidazo[1,2-a]pyridin-7-yl)piperazin-1-yl)ethyl)phosphonate], the IC50 is 10 µM with HCT-116 (setting [1]); 5.6 µM with CCD-18Co (setting [2]); 7.2 µM in the assay on HFL1 (setting [3]); 8 µM in the assay on PC14 (setting [4]); 0.0064 µM on SUV39H2; 10 µM in the assay on A549 (setting [5]).

On to `COc1cc(OC)c(-c2cn3ccc(N4CCN(P(=O)(OC)OC)CC4)cc3n2)cc1Cl` [Example 203, dimethyl {4-[2-(5-chloro-2,4-dimethoxyphenyl)imidazo[1,2-a]pyridin-7-yl]piperazin-1-yl}phosphonate], for which the IC50 in the assay with HCT-116 (HCT-116, 72 h) is 5.1 µM; with CCD-18Co (CCD-18Co, 72 h) it was 6 µM; in the assay on HFL1 (HFL1, 72 h) it was 4 µM; in the assay on PC14 (PC-14, 72 h), 1.8 µM; at SUV39H2, 0.00177 µM; in the assay on A549 (A549, 72 h), 3.9 µM.

As for `COc1cc(OC)c(-c2cn3ccc(N4CCN(S(=O)(=O)C5CCCC5)CC4)nc3n2)cc1Cl` [Example 204, 2-(5-chloro-2,4-dimethoxyphenyl)-7-[4-(cyclopentylsulfonyl)-piperazin-1-yl]imidazo[1,2-a]pyrimidine], the IC50 in the assay with HCT-116 (setting [1]) turned out to be 1 µM; in the assay with CCD-18Co (setting [2]), 4.5 µM; in the assay with HFL1 (setting [3]), 1.7 µM; with PC14 (setting [4]) it was 0.6 µM; on SUV39H2, 0.0448 µM; in the assay on A549 (setting [5]) it was 0.75 µM.

Regarding `COc1cc(OC)c(-c2cn3ccc(N4CCN(S(=O)(=O)C(C)C)CC4)nc3n2)cc1Cl` [Example 205, 2-(5-chloro-2,4-dimethoxyphenyl)-7-[4-(isopropylsulfonyl)piperazin-1-yl]imidazo[1,2-a]pyrimidine], the IC50 in the assay on HCT-116 (setting [1]) was 1.9 µM; in the assay with CCD-18Co (setting [2]), 3.1 µM; in the assay on HFL1 (setting [3]), 2 µM; with PC14 (setting [4]) it was 0.62 µM; at SUV39H2, 0.0291 µM; in the assay on A549 (setting [5]), 1.2 µM.

For `CCS(=O)(=O)N1CCCN(c2ccn3cc(-c4cc(Cl)c(OC)cc4OC)nc3c2)CC1` [Example 206, 2-(5-chloro-2,4-dimethoxyphenyl)-7-[4-(ethylsulfonyl)-1,4-diazepan-1-yl]imidazo[1,2-a]pyridine], the IC50 in the assay on HCT-116 (setting [1]) was found to be 3.3 µM; in the assay with CCD-18Co (setting [2]), 2.9 µM; in the assay with HFL1 (setting [3]), 2.3 µM; in the assay on PC14 (setting [4]), 1.6 µM; at SUV39H2 it was 0.00561 µM; in the assay on A549 (setting [5]), 2.6 µM.

For the compound `COc1cc(OC)c(-c2cn3ccc(N4CCCN(P(=O)(OC)OC)CC4)cc3n2)cc1Cl` [Example 207, dimethyl (4-(2-(5-chloro-2,4-dimethoxyphenyl)imidazo[1,2-a]pyridin-7-yl)-1,4-diazepan-1-yl)phosphonate], the IC50 with HCT-116 (HCT-116, 72 h) is 10 µM; in the assay on CCD-18Co (CCD-18Co, 72 h), 10 µM; with HFL1 (HFL1, 72 h), 10 µM; with PC14 (PC-14, 72 h) it was 10 µM; on SUV39H2 it was 0.0113 µM; in the assay on A549 (A549, 72 h) it was 10 µM.
